Laboratory results published in patent publication EP0944629B1, “BIARYL-PYRIDOQUINAZOLINONE DERIVATIVES AS ANTI-CANCER AGENTS” (American Cyanamid Company, priority 1996, dated 1998).
In brackets after ≈: the same amount, converted by molar mass. Where two headings read alike, the source gives them in different places.

What was measured:
[1] = test system: A2780 DDP; assay: two cell line test procedure (sulforhodamine B cytotoxicity), A2780 DDP; assay type: cell-based; conditions: A2780 DDP (cisplatin-resistant) cells, 48 hours exposure
Protocol: (§1) A2780 S and A2780 DDP cells [Biochemical and Molecular Properties of Cisplatin-resistant A2780 Cells Grown in Folinic Acid; Y. Lu, J. Hnan, and K. Scanlon, J. Biol. Chem., 263, 4891-4894, 1988.] are grown in RPMI 1640 medium containing 5% fetal calf serum, 50 µg/ml streptomycin, 50 units/ml penicillin, 50 µg/ml gentamycin, 0.03% L-glutamine, 1 nM estradiol, 1 nM testosterone, 5 µg/mlinsulin, 5 µg/ml transferrin, and 5 ng/ml selenous acid, at 37°C, in a humidified atmosphere, containing 5% CO2. Experiments are done in the same media.
(§2) Cells are plated at the concentration of 5 x 10^4/ml on Day 0 of the experiment. On Day one control cells are fixed with trichloroacetic acid and 5 ten fold dilutions of tested compounds are added, in duplicates, to the remaining cells. On Day 3 (48 hours exposure to drugs) all cells are fixed with trichloroacetic acid, stained with 0.4% sulforhodamine B, and absorbency is read at 520 nm. The IC50s (concentration causing 50% inhibition) are determined for each drug.

[2] = test system: A2780 S; assay: two cell line test procedure (sulforhodamine B cytotoxicity), A2780 S; assay type: cell-based; conditions: A2780 S cells, 48 hours exposure
Protocol: as §1, §2

[3] = reported by Denny et al.; cited from earlier work
[4] = reported by Denny et al.; cited from earlier work; remark: listed apart in the source
[5] = test system: P388; conditions: reported by Denny et al.; cited from earlier work
[6] = test system: COLON 26; assay: Murine Colon 26 Advanced, Metastatic Tumor; assay type: in vivo, CD2F1 mice
Protocol: CD2F1 mice are injected i.p. with 5 x 10^5 tumor cells on Day 0 of the test. […] Positive drug response is indicated by a more than 25% increase in the mean life span (% ILS), relative to placebo treated controls. Drugs are considered to be toxic, when the mean life span of the drug treated animals is more than 15% shorter than placebo treated controls.

[7] = test system: P388; assay: Murine P388 Leukemia; assay type: in vivo, CD2F1 mice
Protocol: CD2F1 mice are injected i.p. with 1 x 10^6 tumor cells on Day 0 of the test. Drugs are administered i.p. on Days 1, 5, and 9 after the tumor implantation. Positive drug response is indicated by a more than 25% increase in the mean life span (% ILS), relative to placebo treated controls. Drugs are considered to be toxic when the mean life span of the drug treated animals is more than 15% shorter than placebo treated controls.

[8] = test system: LS174T; conditions: days 1,5,9
Protocol: Human tumor fragments are implanted s.c. in athymic nude mice. Tumors are allowed to grow until they attain a mass of 100-150 mgs. […] Drugs are administered i.p. at Days 1, 5, and 9. Each mouse tumor mass is determined every 7 days, until Day 28, using caliper measurements of tumor length and width. Mean tumor mass for each group of animals is then calculated and the relative tumor growth determined. The relative tumor growth is defined as a ratio of the tumor mass on a given day to a tumor mass on Day 0. Calculation of % T/C (the relative tumor growth of treated group divided by the relative tumor growth of placebo group, multiplied by 100) is made for each day of measurement. A positive drug response is indicated by a % T/C value below 60%, and a p value in the Student t-test of less than 0.05. More than 20% deaths in the group related to the drug administration indicates toxicity.

[9] = COLON 26, 200 mg/kg i.p., days 5,9,13
[10] = P388, 50 mg/kg i.p., days 1,5,9
[11] = P388, 100 mg/kg i.p., days 1,5,9
[12] = P388, 200 mg/kg i.p., days 1,5,9

## CN(C)CCNC(=O)c1cccn2c(=O)c3cc(-c4ccccc4-c4ccccc4)ccc3nc12 [Example 14, 11H-Pyrido[2,1-b]quinazoline-6-carboxamide, 2-[1,1'biphenyl]-2-yl-N-[2-(dimethylamino)ethyl]-11-oxo]
[1]
  IC50 (µg/ml) A2780 DDP: 4.80 µg/mL (≈ 10.4 µM)
[2]
  IC50 (µg/ml) A2780 S: 4.40 µg/mL (≈ 9.51 µM)

## CN(C)CCNC(=O)c1cccn2c(=O)c3ccc(-c4cccc(N)c4)cc3nc12 [Example 35, 11H-Pyrido[2,1-b]quinazoline-6-carboxamide, 3-(3-aminophenyl)-N-[2-(dimethylamino)ethyl]-11-oxo]
[1]
  IC50 (µg/ml) A2780 DDP: 0.40 µg/mL (≈ 0.996 µM)
[2]
  IC50 (µg/ml) A2780 S: 0.50 µg/mL (≈ 1.25 µM)

## Cl.Cl.Cl.Nc1ccccc1-c1ccc2nc3c(C(=O)NCCNCCO)cccn3c(=O)c2c1 [Example 30, 11H-Pyrido[2,1-b]quinazoline-6-carboxamide, 2-(2-aminophenyl)-N-[2-[(2-hydroxyethyl)amino]ethyl]-11-oxo-trihydrochloride]
[1]
  IC50 (µg/ml) A2780 DDP: 6.90 µg/mL
[2]
  IC50 (µg/ml) A2780 S: 4.80 µg/mL

## CN(C)CCNC(=O)c1cccn2c(=O)c3cc(-c4cc(C(F)(F)F)cc(C(F)(F)F)c4)ccc3nc12 [Example 20, 11H-Pyrido[2,1-b]quinazoline-6-carboxamide, 2-[3,5-bis(trifluoromethyl)phenyl]-N-[2-(dimethylamino)ethyl]-11-oxo]
[1]
  IC50 (µg/ml) A2780 DDP: 3.00 µg/mL (≈ 5.74 µM)
[2]
  IC50 (µg/ml) A2780 S: 3.80 µg/mL (≈ 7.27 µM)

## CN(C)CCNC(=O)c1cccn2c(=O)c3ccccc3nc12 [I, N-[2-(dimethylamino)ethyl]-11-oxo-11H-pyrido[2,1-b]quinalzoline-6-carboxamide]
[3]
  mutagenic activity: mutagenic activity
[4]
  in vitro activity: some in vitro activity
[5]
  activity in a P388 mouse model: inactive

## CN(C)CCNC(=O)c1cccn2c(=O)c3cc(-c4cccc(N)c4)ccc3nc12 [Example 13, 11H-Pyrido[2,1-b]quinazoline-6-carboxamide, 2-(3-aminophenyl)-N-[2-(dimethyl-amino)ethyl]-11-oxo]
[6]; COLON 26, 100 mg/kg i.p., days 5,9,13
  % ILS: +18%
[6]; [9]
  % ILS: +24%
[6]; COLON 26, 250 mg/kg i.p., days 5,9,13
  % ILS: +35%
[7]; [10]
  % ILS: +2%
[7]; [11]
  % ILS: +20%
[7]; [12]
  % ILS: +57%
[1]
  IC50 (µg/ml) A2780 DDP: 3.70 µg/mL (≈ 9.22 µM)
[2]
  IC50 (µg/ml) A2780 S: 0.40 µg/mL (≈ 0.996 µM)
[8]; 250 mg/kg i.p.
  %T/C: 59 %T/C
[8]; 300 mg/kg i.p.
  %T/C: 44 %T/C

## CN(C)CCNC(=O)c1cccn2c(=O)c3cc(-c4cccc(N(C)C)c4)ccc3nc12 [Example 21, 11H-Pyrido[2,1-b]quinazoline-6-carboxamide, N-[2-(dimethylamino)ethyl]-2-[3-(dimethylamino)phenyl]-11-oxo]
[1]
  IC50 (µg/ml) A2780 DDP: 0.50 µg/mL (≈ 1.16 µM)
[2]
  IC50 (µg/ml) A2780 S: 0.20 µg/mL (≈ 0.466 µM)

## COc1cccc2c1C(=O)c1c(O)c3c(c(O)c1C2=O)C[C@@](O)(C(=O)CO)C[C@@H]3O[C@H]1C[C@H](N)[C@H](O)[C@H](C)O1 [Adriamycin, reference compound]
[6]; COLON 26, 4 mg/kg i.p., days 5,9,14
  % ILS: +71%

## CN(C)CCNC(=O)c1cccn2c(=O)c3cc(-c4cccc(C(F)(F)F)c4)ccc3nc12 [Example 18]
[1]
  IC50 (µg/ml) A2780 DDP: 4.20 µg/mL (≈ 9.24 µM)
[2]
  IC50 (µg/ml) A2780 S: 1.10 µg/mL (≈ 2.42 µM)

## CN(C)CCNC(=O)c1cccn2c(=O)c3cc(-c4cc5ccccc5c5ccccc45)ccc3nc12 [Example 16]
[1]
  IC50 (µg/ml) A2780 DDP: 5.30 µg/mL (≈ 10.9 µM)
[2]
  IC50 (µg/ml) A2780 S: 4.10 µg/mL (≈ 8.43 µM)

## CN(C)CCNC(=O)c1cccn2c(=O)c3cc(-c4cccc5ccccc45)ccc3nc12 [Example 17, 11H-pyrido[2,1-b)quinazoline-6-carboxamide, N-[2-(dimethylamino)ethyl]-2-(1-naphthalenyl)-11-oxo]
[1]
  IC50 (µg/ml) A2780 DDP: 4.70 µg/mL (≈ 10.8 µM)
[2]
  IC50 (µg/ml) A2780 S: 4.60 µg/mL (≈ 10.5 µM)

## Cl.Cl.O=C(NCCNCCO)c1cccn2c(=O)c3cc(-c4ccccc4)ccc3nc12 [Example 26, 11H-pyrido[2,1-b]quinazoline-6-carboxamide, N-[2-[(2-hydroxyethyl)amino]-ethyl]-11-oxo-2-phenyl, dihydrochloride]
[1]
  IC50 (µg/ml) A2780 DDP: 3.50 µg/mL
[2]
  IC50 (µg/ml) A2780 S: 0.80 µg/mL

## CC[C@]1(O)C[C@H]2CN(CCc3c([nH]c4ccccc34)[C@@](C(=O)OC)(c3cc4c(cc3OC)N(C=O)[C@H]3[C@@](O)(C(=O)OC)[C@H](OC(C)=O)[C@]5(CC)C=CCN6CC[C@]43[C@@H]65)C2)C1 [Vincristine, reference compound]
[7]; P388, 0.8 mg/kg i.p., days 1,5,9
  % ILS: +114%
[8]; 1.0 mg/kg i.p.
  %T/C: 52 %T/C

## CN(C)CCNC(=O)c1cccn2c(=O)c3cc(-c4cccc(-c5ccccc5)c4)ccc3nc12 [Example 15, 11H-Pyrido[2,1-b]quinazoline-6-carboxamide, 2-[1,1'-biphenyl]-3-yl-N-[2-(dimethylamino)ethyl]-11-oxo]
[7]; [10]
  % ILS: +8%
[7]; [11]
  % ILS: +2%
[7]; P388, 200 mg/kg i.p., days 1,5
  % ILS: -40%
[1]
  IC50 (µg/ml) A2780 DDP: 0.80 µg/mL (≈ 1.73 µM)
[2]
  IC50 (µg/ml) A2780 S: 0.60 µg/mL (≈ 1.3 µM)

## COc1ccc(-c2ccc3nc4c(C(=O)NCCN(C)C)cccn4c(=O)c3c2)cc1 [Example 19, 11H-Pyrido[2,1-b]quinazoline-6-carboxamide, N-[2-(dimethylamino)ethyl]-2-(4-methoxyphenyl)-11-oxo]
[7]; [10]
  % ILS: -9%
[7]; [11]
  % ILS: +4%
[7]; [12]
  % ILS: +6%
[1]
  IC50 (µg/ml) A2780 DDP: 3.40 µg/mL (≈ 8.16 µM)
[2]
  IC50 (µg/ml) A2780 S: 4.30 µg/mL (≈ 10.3 µM)

## Cl.Cl.Cl.Nc1cccc(-c2ccc3nc4c(C(=O)NCCNCCO)cccn4c(=O)c3c2)c1 [Example 24, 11H-Pyrido [2,1-b]quinazoline-6-carboxamide, 2-(3-aminophenyl)-N-[2-[(2-hydroxyethyl)amino]ethyl]-11-oxo-trihydrochloride]
[6]; [9]
  % ILS: +24%
[6]; COLON 26, 300 mg/kg i.p., days 5,9,13
  % ILS: -24%
[7]; P388, 25 mg/kg i.p., days 1,5,9
  % ILS: +12%
[7]; [10]
  % ILS: +4%
[7]; [11]
  % ILS: +4%
[7]; [12]
  % ILS: 0%
[1]
  IC50 (µg/ml) A2780 DDP: 2.10 µg/mL
[2]
  IC50 (µg/ml) A2780 S: 0.60 µg/mL
